# Results from ChEMBL document CHEMBL1157133, “Design, synthesis, and interaction study of quinazoline-2(1H)-thione derivatives as novel potential Bcl-xL inhibitors” (J Med Chem, 2010).
# Columns and labels:
# Bcl-2-like protein 1 = Bcl-2-like protein 1 (Homo sapiens, UniProt Q07817); assay: Inhibition of human Bcl-XL
# K562 = assay: cells; details: Homo sapiens, K562, 48 h
# Description: Cytotoxicity against human K562 cells after 48 hrs by MTT assay
# PC-3 = assay: Cytotoxicity against human PC3 cells after 48 hrs by MTT assay; assay type: functional, cell-based; details: for EC50: PC-3, 48 h
# [1] = Cytotoxicity against human Bel7404 cells after 48 hrs by MTT assay; details: BEL-7404, 48 h
# OVCAR-3 = assay: Cytotoxicity against human OVCAR-3 cells after 48 hrs by MTT assay; details: OVCAR-3, 48 h
# HepG2 = assay: cells; details: Homo sapiens, HepG2, 48 h
# Description: Cytotoxicity against human HepG2 cells after 48 hrs by MTT assay
# A2780 = assay: cells; details: Homo sapiens, A2780, 48 h
# Description: Cytotoxicity against human A2780 cells after 48 hrs by MTT assay
# Chain of Bcl-2-like protein 1 (Q07817 whole entry): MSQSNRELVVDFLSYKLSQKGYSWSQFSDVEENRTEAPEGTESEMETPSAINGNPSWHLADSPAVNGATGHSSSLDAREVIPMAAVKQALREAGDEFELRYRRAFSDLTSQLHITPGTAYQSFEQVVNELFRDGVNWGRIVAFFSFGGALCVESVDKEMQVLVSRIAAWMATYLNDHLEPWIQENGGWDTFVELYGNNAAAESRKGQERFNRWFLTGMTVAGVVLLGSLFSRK
SMILES,IC50 (Bcl-2-like protein 1) [µM],EC50 (K562) [µM],Activity (PC-3),EC50 (PC-3) [µM],EC50 [1] [µM],EC50 (OVCAR-3) [µM],EC50 (HepG2) [µM],EC50 (A2780) [µM]
O=C(O)COc1cccc(/C=c2\sc3n(c2=O)C(c2cccc(F)c2)C2=C(N=3)c3ccccc3CC2)c1 (configuration not stated),5.4,> 100,Dose-dependent effect,> 100,50.9,2.8,186,16.9
COc1ccccc1C1C2=C(N=c3sc(=Cc4ccc(C=CC(=O)O)cc4)c(=O)n31)c1ccccc1CC2 (configuration not stated),12.7,> 100,Dose-dependent effect,17.3,11.2,3.29,49.8,7.85
CCOC(=O)COc1cccc(/C=c2\sc3n(c2=O)C(c2ccccc2OC)C2=C(N=3)c3ccccc3CC2)c1 (configuration not stated),100,> 100,–,45,92.3,47.5,32.3,17.8
COc1ccccc1C1C2=C(N=c3s/c(=C\c4ccc(OCC(=O)O)cc4)c(=O)n31)c1ccccc1CC2 (configuration not stated),36,5.62,–,11.1,6.1,2.85,15.3,6.13
O=C(O)COc1cccc(/C=c2\sc3n(c2=O)C(c2ccco2)C2=C(N=3)c3ccccc3CC2)c1 (configuration not stated),40.4,> 100,Dose-dependent effect,10.2,14,8.5,72.8,15.3
COc1ccccc1C1C=C(c2ccccc2)N=c2s/c(=C\c3cccc(OCC(=O)O)c3)c(=O)n21 (configuration not stated),72,> 100,–,65.2,> 500,22.2,175,9.98
O=C(O)COc1cccc(/C=c2\sc3n(c2=O)C(c2cccc4ccccc24)C2=C(N=3)c3ccccc3CC2)c1 (configuration not stated),19.7,6.33,–,68,3.1,2.21,19.9,7.52
COc1ccccc1C1C2=C(N=c3s/c(=C\c4ccccc4OCC(=O)O)c(=O)n31)c1ccccc1CC2 (configuration not stated),12.1,7.99,Dose-dependent effect,–,9.5,4.44,41.9,7.81
COc1ccccc1C1C2=C(N=c3s/c(=C\c4ccc(-c5cccc(C(=O)O)c5)cc4)c(=O)n31)c1ccccc1CC2 (configuration not stated),26.7,9.41,–,67.1,4.5,7.17,7.2,2.23
COc1ccccc1C1C2=C(N=c3s/c(=C\c4cccc(OCC(=O)O)c4)c(=O)n31)c1cccc(OCc3ccccc3)c1CC2 (configuration not stated),> 100,–,–,> 100,–,–,–,–
O=C(O)c1cccc(-c2ccc(/C=c3\sc4n(c3=O)C(c3ccc(F)cc3)C3=C(N=4)c4ccccc4CC3)o2)c1 (configuration not stated),5.2,26.3,Dose-dependent effect,13.4,25.9,5.85,35.1,7.38
O=C(O)c1cccc(-c2ccc(/C=c3\sc4n(c3=O)C(c3ccco3)C3=C(N=4)c4ccccc4CC3)o2)c1 (configuration not stated),35.9,> 100,Dose-dependent effect,79.5,> 500,> 100,> 500,15.8
COc1ccc2c(c1)CCC1=C2N=c2s/c(=C\c3ccc(-c4cccc(C(=O)O)c4)o3)c(=O)n2C1c1cccc(F)c1 (configuration not stated),> 100,–,Dose-dependent effect,35.2,–,–,–,–
O=C(O)c1cccc(-c2ccc(/C=c3\sc4n(c3=O)C(c3ccccc3F)C3=C(N=4)c4ccccc4CC3)o2)c1 (configuration not stated),6.2,> 100,–,31.2,> 500,76.6,> 500,> 100
O=C(O)c1cccc(-c2ccc(/C=c3\sc4n(c3=O)C(c3cccc(F)c3)C3=C(N=4)/C(=C/c4cccc(F)c4)CCC3)o2)c1 (configuration not stated),> 100,> 100,–,51.4,3.8,11.7,8,5.36
O=C(O)c1cccc(-c2ccc(/C=c3\sc4n(c3=O)C(c3ccccc3)C3=C(N=4)c4ccccc4CC3)o2)c1 (configuration not stated),12.6,> 100,–,> 100,71.7,18.9,13.6,7.46
COc1ccccc1C1C2=C(N=c3s/c(=C\c4ccc(C(=O)O)cc4)c(=O)n31)c1ccccc1CC2 (configuration not stated),12.6,16.1,–,63.5,9.7,3.35,45,7.94
COc1ccccc1C1C2=C(N=c3s/c(=C\c4ccc(-c5cccc(C(=O)O)c5)o4)c(=O)n31)c1ccccc1CC2 (configuration not stated),5.3,20.8,–,23.2,140,9.06,35.6,4.94
O=C(O)c1cccc(-c2ccc(/C=c3\sc4n(c3=O)C(c3cccc([N+](=O)[O-])c3)C3=C(N=4)c4ccccc4CC3)o2)c1 (configuration not stated),1.9,17.3,Dose-dependent effect,44.9,65.1,26.9,13.4,3.9
COc1ccccc1C1C2=C(N=c3s/c(=C\c4cccc(OCC(=O)O)c4)c(=O)n31)c1cccc(OC(=O)c3ccccc3-c3ccccc3)c1CC2 (configuration not stated),> 100,–,–,16.6,–,–,–,–
O=C(O)c1cccc(-c2ccc(/C=c3\sc4n(c3=O)C(c3cccc5ccccc35)C3=C(N=4)c4ccccc4CC3)o2)c1 (configuration not stated),13.4,22.9,Dose-dependent effect,24.2,204,18.7,> 500,6.34
O=C(O)COc1cccc(/C=c2\sc3n(c2=O)C(c2cccc(F)c2)C2=C(N=3)/C(=C/c3cccc(F)c3)CCC2)c1 (configuration not stated),> 100,> 100,–,12,4.3,3.27,15.9,6.8
CC(C)C(C(=O)O)C1C(=O)/C(=C/c2ccc(Br)cc2)SC1=S (configuration not stated),6.2,–,–,–,–,–,–,–
O=C(O)COc1cccc(/C=c2\sc3n(c2=O)C(c2ccccc2)C2=C(N=3)c3ccccc3CC2)c1 (configuration not stated),10.3,7.04,–,> 100,7.8,2.73,14.5,5.49
COc1ccc2c(c1)CCC1=C2N=c2s/c(=C\c3cccc(OCC(=O)O)c3)c(=O)n2C1c1ccccc1OC (configuration not stated),> 100,–,–,> 100,–,–,–,–
